The experiment concerns Calf thymus DNA. Kind of experiment: Displacement of ethidium bromide from calf thymus DNA. The class given is nucleic-acid assay. Particulars: Bos taurus.

As for `c1ccc2c(c1)nc(CN1CCCCC1)n1c3ccccc3nc21`, the logC50 was -3.84 and the logKA turned out to be 5.94.

Take `CC1CCCCN1CC(=O)Nc1ccccc1-c1nc2ccccc2[nH]1` (configuration not stated): the logC50 is -2.66 and the logKA is 4.76.

`CC1CCN(CCC(=O)Nc2ccccc2-c2nc3ccccc3[nH]2)CC1` returned a logC50 of -2.83 and a logKA of 4.93.

On to `CC1CCN(CCc2nc3ccccc3c3nc4ccccc4n23)CC1`, for which the logC50 was -4.23 and the logKA was found to be 6.33.

For `O=C(CCN1CCOCC1)Nc1ccccc1-c1nc2ccccc2[nH]1`, the logC50 was -2.92 and the logKA was determined as 5.02.

The compound `c1ccc2c(c1)nc(CCN1CCOCC1)n1c3ccccc3nc21` came in with a logC50 of -4.12 and a logKA of 6.22.

For `CN1CCN(CCc2nc3ccccc3c3nc4ccccc4n23)CC1`, the logC50 was -4.18 and the logKA amounted to 6.28.

Regarding `O=C(CN1CCOCC1)Nc1ccccc1-c1nc2ccccc2[nH]1`, the logC50 is -2.58 and the logKA is 4.68.

In turn, `CCN(CC)CCOc1ccc2c(c1)C(=O)c1cc(OCCN(CC)CC)ccc1-2` registered a logC50 of -4.2 and a logKA of 6.3.

In turn, `c1ccc2c(c1)nc(CN1CCOCC1)n1c3ccccc3nc21` displayed a logC50 of -3.44 and a logKA of 5.54.

`CC1CCCCN1CCC(=O)Nc1ccccc1-c1nc2ccccc2[nH]1` (configuration not stated) showed a logC50 of -2.66 and a logKA of 4.76.

As for `CC1CCCCN1CCc1nc2ccccc2c2nc3ccccc3n12` (configuration not stated), the logC50 was -4.17 and the logKA amounted to 6.27.

In the case of `CC1CCN(CC(=O)Nc2ccccc2-c2nc3ccccc3[nH]2)CC1`, the logC50 was -2.84 and the logKA was 4.94.

Consider `c1ccc2c(c1)nc(CCN1CCCCC1)n1c3ccccc3nc21`, for which the logC50 was -4.03 and the logKA stood at 6.13.

Compound `CN1CCN(CC(=O)Nc2ccccc2-c2nc3ccccc3[nH]2)CC1` displayed a logC50 of -2.32 and a logKA of 4.42.

The compound `O=C(CCN1CCCCC1)Nc1ccccc1-c1nc2ccccc2[nH]1` showed a logC50 of -2.8 and a logKA of 4.9.

The compound `CC1CCCCN1Cc1nc2ccccc2c2nc3ccccc3n12` (configuration not stated) came in with a logC50 of -3.65 and a logKA of 5.75.

Compound `CN1CCN(CCC(=O)Nc2ccccc2-c2nc3ccccc3[nH]2)CC1` registered a logC50 of -2.86 and a logKA of 4.96.

The compound `O=C(CN1CCCCC1)Nc1ccccc1-c1nc2ccccc2[nH]1` returned a logC50 of -2.65 and a logKA of 4.75.

Regarding `CN1CCN(Cc2nc3ccccc3c3nc4ccccc4n23)CC1`, the logC50 was -3.72 and the logKA came out at 5.82.

`CC1CCN(Cc2nc3ccccc3c3nc4ccccc4n23)CC1` registered a logC50 of -3.83 and a logKA of 5.93.

For the origin of these results see ChEMBL document CHEMBL1153003, “Synthesis and affinity to DNA of phenylbenzoimidazoles and benzoimidazo[1,2-c]quinazolines” (Eur J Med Chem, 2009).
